Laboratory results: US12139488B2, “Pyrido[3,2-d]pyrimidine compounds uses thereof for treating a proliferative disease” (Universite de Montreal, priority 2021, dated 2024)
Read-outs that look alike come from different tables or passages of the source.

Experiments:
Assay type in all cases: cell-based, human
[1] = system: pERK in SK-MEL30 cells (NRAS-Q61K); experiment: Phospho-ERK inhibition (AlphaLISA), SK-MEL30; conditions: for SK-MEL30 pERK % Ymin: SK-MEL30, value in parentheses
Experimental: (§1) All cancer cell lines (A375, A101D, A2058, RKO, HT29 SK-MEL 30, IPC298, HepG2, HCT-116, Lovo, SWV620, SW480, NCI-H358, NCI-H2122, Calu-6, NCIH2087, NCIH1755, NCIH1666 and Mewo) were obtained from ATCC and cultured in RPMI-1640 medium (Gibco) supplemented with 5% heat inactivated fetal bovine serum (FBS, Wisent) at 37° C. under 5% CO2. Cells were maintained in T175 flasks (Greiner). They were passaged by removing the culture medium, washing once in 10 mL of room temperature Phosphate Buffered Saline (PBS; Wisent) and incubating at 37° C. with 2 mL of 0.05% Trypsin (Thermo-Fisher). Trypsin was then inactivated by adding complete growth medium and the cells were then replated in a T175 culture dish at the appropriate dilution. All cell lines were routinely tested for mycoplasma contamination. Tissue type and mutational status of each cell line can be found in Table B.
(§2) AlphaLISA® SureFire® Ultra™ p-ERK 1/2 (Thr202/Tyr204) analysis was conducted on cells plated in 100 μL of complete RPMI-1640 growth medium in 96-well flat-bottomed transparent dishes (Costar) at a density indicated in Table C. Cells were maintained overnight at 37° C. under 5% CO2 before treatment with compounds' dilution series for one hour. The cell density in cells/cm^2 corresponds to cell number divided by the area of one well of a 96-well plate ([…]).
(§3) In a dilution series 100 μL/well of test substance dilution prepared in complete RPMI-1640 growth media was added to the cells. The dilution series is selected so that ten concentrations cover a range from 10 μM to 0.33 nM. If necessary the initial concentration of 10 μM is increased to 100 μM or lowered to 1 μM (as in the case of A375 and H1666 cells, which are generally more sensitive to the compounds) and further dilution is carried out accordingly. The final concentration of DMSO in the assay is set at 0.5%.
(§4) After treatment, media was removed and cells were lysed in 50 μL of 1× AlphaScreen Ultra Lysis Buffer (Perkin Elmer). The AlphaLISA® SureFire® Ultra™ p-ERK 1/2 (Thr202/Tyr2O4) (PerkinElmer) reactions were performed with 5 μL of cell lysate according to the manufacturer's specifications in 384-well proxyplates (Perkin Elmer) followed by overnight incubation of the reactions at room temperature in a humidified chamber. After completion of the reactions, the signals were recorded on an EnVision plate reader (Perkin Elmer) using built in AlphaLISA® settings.
(§5) The effect of each compound dilution on the pERK signal was expressed in % inhibition and calculated as follows. An internal 100% inhibition control ([…] trametinib, cat #HY-10999; MedChem Express; CAS #871700-17-3) was included in each plate and used as a measure of pERK background. First, the value obtained for trametinib was subtracted from each data point. The average of DMSO (vehicle) controls (set as 0% inhibition) was established and used to calculate % inhibition: % inhibition=100*(1-((pERK signalcompound)/(pERK signalDMSO)))
(§6) The ability of each compound to inhibit pERK signal was expressed as an IC50 value obtained by plotting the inhibition values for each data point of a dilution series and fitting the obtained curves using a log(agonist) versus response-variable slope (four parameters) function using GraphPadPrism (V7.0) or Dotmatics Screening Ultra platform.
(§7) When present, paradoxical pERK induction is inferred from the negative % inhibition values observed in the pERK IC50 curves of a compound.

[2] = system: pERK in Lovo cells (KRAS-G13D); experiment: Phospho-ERK inhibition (AlphaLISA), Lovo; conditions: for Lovo pERK % Ymin: value in parentheses
Experimental: as §1, §2, §3, §4, §5, §6, §7

A375 cells (BRAF V600E) = experiment: Proliferation inhibition (CellTiter-Glo), A375; conditions: A375, 3 days, read-out: A375 Prolif. EC50
Experimental: as §1
(§8) CellTiter-Glo® viability analysis was conducted on cells plated in 100 μL of complete RPMI-1640 growth medium in 96-well flat-bottomed white opaque plates (Greiner or Croning) at a density indicated in Table E (for each CCL, number of cells plated per well of a 96-well plate to perform the CellTiter-Glo® cell viability assay). The cell density in cells/cm^2 would correspond to cell number divided by the area of one well of a 96-well plate (0.32 cm^2). […]
(§9) After 3 days of incubation, the growth media were removed by aspiration and 60 μL of diluted CellTiter-Glo® reagent (10 μL CellTiter-Glo® reagent+50 μL of PBS) was added to each well. […] Luminescence signals were then acquired on a Synergy Neo2 plate reader (Biotek).
(§10) The effect of each compound dilution on the proliferation of cancer cell lines was expressed in % inhibition and calculated as follows. […]
as §6, with “proliferation” for “pERK signal”, “a EC50” for “an IC50”, “effect” for “inhibition”

Lovo cells (KRAS-G13D) = experiment: Proliferation inhibition (CellTiter-Glo), Lovo; conditions: 3 days, read-out: Lovo Prolif. EC50
Experimental: as §1, §8, §9, §10
as §6, with “proliferation” for “pERK signal”, “a EC50” for “an IC50”, “effect” for “inhibition”

[3] = system: HCT-116 cells (KRAS G13D); experiment: Proliferation inhibition (CellTiter-Glo), HCT116; conditions: HCT116, 3 days, read-out: HCT116 Prolif. EC50
Experimental: as §1, §8, §9, §10
as §6, with “proliferation” for “pERK signal”, “a EC50” for “an IC50”, “effect” for “inhibition”

[4] = system: pERK in SW620 cells (KRAS-G12V); experiment: Phospho-ERK inhibition (AlphaLISA), SW620; conditions: for SW620 pERK % Ymin: SW620, value in parentheses
Experimental: as §1, §2, §3, §4, §5, §6, §7

SMILES | IC50 ([1]; Homo sapiens, SK-MEL-30) [nM] | SK-MEL30 pERK % Ymin [1] [%] | IC50 ([2]; Homo sapiens, LoVo) [nM] | Lovo pERK % Ymin ([2]; Lovo) [%] | EC50 (A375 cells (BRAF V600E); Homo sapiens, A-375, 72 h) [nM] | EC50 (Lovo cells (KRAS-G13D); Homo sapiens, 72 h) [nM] | EC50 ([3]; Homo sapiens, HCT-116, 72 h) [nM] | IC50 ([4]; Homo sapiens, SW-620) [nM] | SW620 pERK % Ymin [4] [%] | IC50 ([1]; SK-MEL30) [nM] | IC50 ([2]; Lovo) [nM] | EC50 (A375 cells (BRAF V600E)) [nM] | EC50 (Lovo cells (KRAS-G13D)) [nM] | EC50 [3] [nM] | IC50 ([4]; SW620) [nM]
Cc1ccc2c(Nc3cccc(Cl)c3F)nccc2c1NC(=O)c1csc2c(N)ncnc12 [Belvarafenib, reference compound] | < 30 | −45 | < 30 | −12 | < 30 | < 30 | 300 to 3000 | 30 to 300 | −151 | – | – | – | – | – | –
Nc1cccc2c1ncn2-c1ccc2ncnc(Nc3c(F)ccc(NS(=O)(=O)c4cccc(Cl)c4Cl)c3F)c2n1 [Example 99] | – | −1 | – | −15 | – | – | – | – | −11 | < 30 | 30 to 300 | < 30 | < 30 | 300 to 3000 | 30 to 300
CC1(O)CCN(c2cccc3c2ncn3-c2ccc3ncnc(Nc4c(F)ccc(NS(=O)(=O)c5cccc(Cl)c5Cl)c4F)c3n2)CC1 [Example 524] | – | −13 | – | −5 | – | – | – | – | −4 | < 30 | 30 to 300 | < 30 | < 30 | 300 to 3000 | 30 to 300
